In patent publication US9034391B2, “Compositions with enhanced bioavailability and fast acting inhibitor or gastric acid secretion” (YALE UNIVERSITY, priority 2006, dated 2015):
“And” between values parts separate entries of the source, which are not always exact repeats. Equal values may be shown once. “Also recorded” adds a separate entry of the source.

Legend:
[1] = biological target: T1, fundic H+,K+-ATPase (Rattus norvegicus, UniProt P09626); experiment: Intracellular pH recovery in isolated rat fundic (F1) glands; type: cell-based; conditions: for effect on fundic (F1) acid secretion (in words): histamine 100 μM
T1 construct: Glands adjacent to the esophageal junction were hand dissected; from tissue; host or cells: hand-dissected fundic glands of Sprague Dawley rat stomach, next to the esophageal junction
Experimental: Male Sprague Dawley rats weighing 200-300 g were housed in climate and humidity controlled, light cycled rooms and fed standard chow with free access to water. Prior to experiments, animals were fasted while allowing free access to water for 18-24 hours to reduce basal acid secretion. Following isoflurane anesthesia the animals were sacrificed, an abdominal incision was made exposing the stomach. After isolating the esophagus and duodenal junctures a total gastrectomy was performed with 1-2 cm of esophagus remaining attached to the gastrectomy. We included the esophageal juncture to have a common landmark for all fundic isolations. While holding the esophagus with forceps approximately 3 mm of fundus was removed with 5 mm of the intact esophagus.
The removed fundic tissue was placed in ice cold HEPES-buffered Ringer-solution (pH adjusted to 7.4 at 4° C.) and transferred to the stage of a dissection microscope. The fundic glands were visualized under the microscope at 50× magnification. Glands adjacent to the esophageal junction were hand dissected. […]
Using the same protocol that we developed for isolated corpus gland perfusion^20a, 21a individual fundic glands were loaded with a […] of the pH sensitive dye (BCECF, (2′7-bis(2-carbocyethal)-5-(and 6)-carboxyflurorescein-acetomethylester; Molecular Probes, OR USA)) for 15 minutes. […] Acid extrusion was monitored in the absence of bicarbonate. […] Intracellular pH recovery rates (H^+, K^+-ATPase activity) were measured in Na^+ free HEPES solutions containing: 1) 100 μM histamine 2) 100 μM pentagastrin. […]
The recovery rates are expressed as the ΔpHi/min, and were calculated over the pH range of 6.5-6.9.
Activation of acid secretion via histamine, acetylcholine or pentagastrin was induced by preincubation of the glands for 15 min before the experiment combined with BCECF (100 μM) loading. All data are summarized as mean±S.E. Significance was determined using the one-way ANOVA test with p<0.05 considered to be statistically significant. […]

[2] = biological target: T2, H+,K+-ATPase (Rattus norvegicus, UniProt P09626); experiment: Intracellular pH recovery in rat corpus glands (fundus/corpus comparison); type: cell-based; conditions: corpus glands
T2 construct: Individual glands were isolated using a hand-dissection technique as described previously; from tissue; host or cells: hand-dissected rat gastric glands (corpus and antrum), parietal cells
Experimental: Molecular Probes, OR USA)) for 15 minutes. […] Measurements were performed in the epifluorescence mode with 60×/0.80 and 40×/0.90 objectives. […] Data points were acquired every 15 s. […] Acid extrusion was monitored in the absence of bicarbonate. […] All data are summarized as mean±S.E. Significance was determined using the one-way ANOVA test with p<0.05 considered to be statistically significant. All chemicals used were obtained from Sigma and Molecular Probes.

[3] = system: gastric acid secretion in freshly isolated rat whole stomach; experiment: Whole stomach pH measurements, ex vivo rat whole stomach preparation
Experimental: Before the experiments animals were fasted for 24 h to reduce basal acid secretion to a consistent minimum. Animals were killed with an overdose of isoflurane and an abdominal incision was made. The stomach was ligated at the duodenal and esophageal junction and excised. Then 1 ml of non buffered, isotonic saline (140 mM) was infused into the lumen of the stomach. […] The stomachs were then placed in either oxygenated HEPES-buffered Ringer solution or in the same solution containing 100 μM histamine alone or additionally 300 μM ZnCl2 (pH 7.4) and maintained at 37° C. After 1 hour the stomach contents were aspirated and the pH was recorded.

[4] = biological target: H+,K+-ATPase (Homo sapiens, UniProt P20648); conditions: human gastric glands
Experimental: The human tissue was transferred from the OR in a HEPES-buffered Ringer solution. The tissue was stored on ice and immediately the isolated glands were dissected as described above.
Isolated gastric glands were incubated in a HEPES-buffered Ringer's solution containing either 10 μmol of the pH-sensitive dye BCECF-AM (2′,7′)-bis-(2-carboxyethyl)-5-(and -6)-carboxy-fluorescin, aceto-methyl ester (Molecular Probes, Eugene, Oreg.) for 10 minutes as described previously^37-39. Following dye-loading the chamber was flushed with a HEPES solution to remove all non-de-esterified dye. The perfusion chamber was mounted on the stage of an inverted microscope (Olympus IX50), which was used in the epifluorescence mode with a 40× objective. BCECF was successively excited at 440 nm and 490 nm from a monochromator light source, and the resultant fluorescent signal was monitored at 535 nm using an intensified charge-coupled device camera. Individual regions of interest were outlined and simultaneously monitored every 15 sec. during the course of the experiment. A minimum of 8 cells or regions was selected per gland.
Proton extrusion by individual parietal cells was monitored by observing recovery of pHi after acid loading the cells with Na^+ free HEPES solution containing 20 mM NH4C1. Parietal cells were subsequently superfused with Na^+ free HEPES, which abolished all Na^+/H^+ Exchanger (NHE) activity, trapping H^+ within the cytosol and initiating an immediate drop in pHi. […]
The intensity ratio data (490/440) were converted to pH values using the high K^+/nigericin calibration technique^40. Intracellular pH recovery rates were calculated from the same initial starting pH to eliminate the potential variation in the individual intracellular buffering power of the cells under the different experimental conditions. […] The recovery rates are expressed as the ΔpH/min, and were calculated over the pH range of 6.5-6.8. […] All data were summarized as means±SE and were analysed by grouping measurements at baseline values.

[5] = biological target: T2, H+,K+-ATPase; experiment: Intracellular pH recovery (BCECF, NH4Cl prepulse) in isolated rat gastric glands; type: cell-based
Excerpt: Following removal of the stomach, the stomach was opened longitudinally and the corpus and antrum isolated and sliced into 0.5 cm square sections, and washed with cold Ringer solution to remove residual food particles. The tissues were transferred to the stage of a dissecting microscope. Individual glands were isolated using a hand-dissection technique as described previously^36. Following isolation, individual isolated glands were allowed to adhere to cover slips that had been pre-coated with Cell-Tak (Collaborative Research, Bedford, Mass.) and were transferred to the stage of an inverted microscope.
Isolated gastric glands were incubated in a HEPES-buffered Ringer's solution containing either 10 μmol of the pH-sensitive dye BCECF-AM (2′,7′)-bis-(2-carboxyethyl)-5-(and -6)-carboxy-fluorescin, aceto-methyl ester (Molecular Probes, Eugene, Oreg.) for 10 minutes as described previously^37-39. […] A minimum of 8 cells or regions was selected per gland.
Proton extrusion by individual parietal cells was monitored by observing recovery of pHi after acid loading the cells with Na^+ free HEPES solution containing 20 mM NH4C1.
The recovery rates are expressed as the ΔpH/min, and were calculated over the pH range of 6.5-6.8.

[6] = system: histamine induced acid secretion; experiment: Oral zinc supplementation in rats, histamine induced proton extrusion of isolated glands; type: in vivo, rat
Excerpt: Following dye-loading the chamber was flushed with a HEPES solution to remove all non-de-esterified dye. The perfusion chamber was mounted on the stage of an inverted microscope (Olympus IX50), which was used in the epifluorescence mode with a 40× objective. BCECF was successively excited at 440 nm and 490 nm from a monochromator light source, and the resultant fluorescent signal was monitored at 535 nm using an intensified charge-coupled device camera. Individual regions of interest were outlined and simultaneously monitored every 15 sec. during the course of the experiment. A minimum of 8 cells or regions was selected per gland.
Proton extrusion by individual parietal cells was monitored by observing recovery of pHi after acid loading the cells with Na^+ free HEPES solution containing 20 mM NH4C1. Parietal cells were subsequently superfused with Na^+ free HEPES, which abolished all Na^+/H^+ Exchanger (NHE) activity, trapping H^+ within the cytosol and initiating an immediate drop in pHi. Under these conditions, the only potential H^+ extrusion pathway is via the H^+,K^+-ATPase activation.
The intensity ratio data (490/440) were converted to pH values using the high K^+/nigericin calibration technique^40. Intracellular pH recovery rates were calculated from the same initial starting pH to eliminate the potential variation in the individual intracellular buffering power of the cells under the different experimental conditions. All data including the individual images for all wavelengths were recorded to the hard disk which allowed us to return to the individual images after the experiment for further analysis. The recovery rates are expressed as the ΔpH/min, and were calculated over the pH range of 6.5-6.8. All chemicals were obtained from Sigma and Molecular Probes. All data were summarized as means±SE and were analysed by grouping measurements at baseline values.

T1 sequence (P09626 whole entry): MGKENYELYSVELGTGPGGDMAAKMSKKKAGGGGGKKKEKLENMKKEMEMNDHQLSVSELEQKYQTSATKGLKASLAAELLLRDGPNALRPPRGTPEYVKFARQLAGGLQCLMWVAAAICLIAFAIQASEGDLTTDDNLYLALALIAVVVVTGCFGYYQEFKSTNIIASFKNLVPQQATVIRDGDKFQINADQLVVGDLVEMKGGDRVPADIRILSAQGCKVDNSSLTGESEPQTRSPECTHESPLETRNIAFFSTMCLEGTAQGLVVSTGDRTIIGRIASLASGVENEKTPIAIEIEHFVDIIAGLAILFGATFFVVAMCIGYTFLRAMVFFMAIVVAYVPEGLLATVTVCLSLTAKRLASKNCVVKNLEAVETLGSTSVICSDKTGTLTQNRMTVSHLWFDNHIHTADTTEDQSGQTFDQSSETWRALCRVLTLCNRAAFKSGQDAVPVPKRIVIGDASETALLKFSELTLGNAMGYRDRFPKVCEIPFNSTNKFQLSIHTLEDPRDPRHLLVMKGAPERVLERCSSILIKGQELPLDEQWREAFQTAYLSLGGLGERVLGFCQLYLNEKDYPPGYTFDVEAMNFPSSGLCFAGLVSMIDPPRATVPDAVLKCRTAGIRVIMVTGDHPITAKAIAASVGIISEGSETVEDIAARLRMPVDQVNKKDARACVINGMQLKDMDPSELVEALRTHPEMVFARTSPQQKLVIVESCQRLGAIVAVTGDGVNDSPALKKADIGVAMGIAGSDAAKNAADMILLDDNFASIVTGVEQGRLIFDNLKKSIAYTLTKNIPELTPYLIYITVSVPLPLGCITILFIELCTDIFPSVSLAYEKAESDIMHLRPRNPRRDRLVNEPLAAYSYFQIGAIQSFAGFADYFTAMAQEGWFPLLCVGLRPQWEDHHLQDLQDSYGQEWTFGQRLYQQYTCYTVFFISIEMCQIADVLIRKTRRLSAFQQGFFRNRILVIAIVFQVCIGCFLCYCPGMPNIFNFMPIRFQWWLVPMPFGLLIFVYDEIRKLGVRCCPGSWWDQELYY
T1 sequence (P18598 whole entry partner): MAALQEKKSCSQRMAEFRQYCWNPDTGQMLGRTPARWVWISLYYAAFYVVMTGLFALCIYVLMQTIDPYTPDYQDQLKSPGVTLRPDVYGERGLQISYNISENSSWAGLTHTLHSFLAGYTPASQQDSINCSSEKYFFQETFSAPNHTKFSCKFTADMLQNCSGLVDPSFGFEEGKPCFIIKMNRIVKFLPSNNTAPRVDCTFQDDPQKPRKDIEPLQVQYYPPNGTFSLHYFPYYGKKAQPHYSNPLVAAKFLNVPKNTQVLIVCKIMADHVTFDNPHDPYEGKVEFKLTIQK
T2 sequence (P09626 whole entry): as the sequence (P09626 whole entry) above
T2 sequence (P18598 whole entry partner): as the sequence (P18598 whole entry partner) above
Sequence of H+,K+-ATPase (Homo sapiens, UniProt P20648) (P20648 whole entry): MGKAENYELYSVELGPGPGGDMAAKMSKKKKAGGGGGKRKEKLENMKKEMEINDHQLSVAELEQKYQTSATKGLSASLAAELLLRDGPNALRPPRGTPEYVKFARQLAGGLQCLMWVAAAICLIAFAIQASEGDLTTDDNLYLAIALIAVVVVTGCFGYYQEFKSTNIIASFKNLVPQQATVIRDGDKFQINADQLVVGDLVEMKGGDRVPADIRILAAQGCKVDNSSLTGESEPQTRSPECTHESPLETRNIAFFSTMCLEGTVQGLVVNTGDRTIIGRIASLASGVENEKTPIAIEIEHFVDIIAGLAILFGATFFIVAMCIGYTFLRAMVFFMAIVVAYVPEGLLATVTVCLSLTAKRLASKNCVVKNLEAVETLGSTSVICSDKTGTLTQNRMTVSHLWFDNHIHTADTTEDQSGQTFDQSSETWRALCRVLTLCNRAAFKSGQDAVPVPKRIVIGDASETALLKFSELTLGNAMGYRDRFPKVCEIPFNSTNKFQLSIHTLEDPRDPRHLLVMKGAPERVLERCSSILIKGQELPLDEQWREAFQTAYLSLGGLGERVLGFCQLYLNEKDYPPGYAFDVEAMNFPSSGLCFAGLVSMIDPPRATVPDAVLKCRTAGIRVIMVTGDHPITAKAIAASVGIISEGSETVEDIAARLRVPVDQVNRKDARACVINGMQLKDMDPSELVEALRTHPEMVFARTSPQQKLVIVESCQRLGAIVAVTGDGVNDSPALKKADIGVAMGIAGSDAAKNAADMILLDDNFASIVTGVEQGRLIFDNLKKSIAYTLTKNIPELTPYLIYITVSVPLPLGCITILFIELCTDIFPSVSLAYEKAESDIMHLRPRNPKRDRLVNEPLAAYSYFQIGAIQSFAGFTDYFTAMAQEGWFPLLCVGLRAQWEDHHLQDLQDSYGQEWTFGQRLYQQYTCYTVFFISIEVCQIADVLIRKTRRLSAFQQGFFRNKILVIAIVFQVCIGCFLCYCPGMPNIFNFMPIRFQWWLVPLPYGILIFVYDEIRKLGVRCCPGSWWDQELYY
Sequence of H+,K+-ATPase (Homo sapiens, UniProt P20648) (P51164 whole entry partner): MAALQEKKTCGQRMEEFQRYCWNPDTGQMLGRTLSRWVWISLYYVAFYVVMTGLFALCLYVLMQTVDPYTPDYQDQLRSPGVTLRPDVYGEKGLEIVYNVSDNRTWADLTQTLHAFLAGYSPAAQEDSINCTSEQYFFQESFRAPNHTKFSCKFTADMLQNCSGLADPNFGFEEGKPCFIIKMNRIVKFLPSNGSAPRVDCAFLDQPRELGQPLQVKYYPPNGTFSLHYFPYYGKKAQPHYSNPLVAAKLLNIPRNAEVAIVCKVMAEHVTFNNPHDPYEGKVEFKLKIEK

Compound	effect on fundic (F1) acid secretion (in words) [1]	effect on corpus acid secretion (in words) [2]	luminal pH ([3]; 100 μM histamine and 300 μM ZnCl2, 1 hour)	luminal pH compared with histamine alone (in words) ([3]; 100 μmol histamine and 300 μmol ZnCl2)	effect on histamine stimulated proton efflux (in words) ([4]; histamine 100 μM, ZnCl2 300 μM)	inhibition of proton extrusion ([5]; 300 μM ZnCl2, compared to the histamine (100 μM) induced rate) [%]	onset of inhibition of histamine induced acid secretion ([5]; ZnCl2 300 μM added to superfusion bath during alkalinization, histamine 100 μM)	reversibility of inhibition after removal of ZnCl2 ([5]; ZnCl2 300 μM, histamine 100 μM)	effect on histamine induced acid secretion (in words) ([5]; rat gastric glands, histamine 100 μM, ZnCl2 25-300 μM)	histamine induced proton extrusion rate after oral ZnCl2 ([6]; 0.05 mg/kg/d ZnCl2 in drinking water for 5 days)	histamine induced proton extrusion rate after oral ZnCl2 ([6]; 150 mg/kg/d ZnCl2 in drinking water for 5 days)	F1 gland alkalinization rate ([1]; 100 μM secretagogue alone)	proton efflux under histamine stimulation (in words) ([4]; histamine alone)	recovery rate (proton extrusion) of histamine stimulated parietal cells ([6]; control group with histamine alone, no ZnCl2)
Cc1cccc(C)c1CNc1cc(C(=O)NCCO)cn2c(C)c(C)nc12 [AZD0865]	does not completely inhibit proton extrusion	effectively inhibits acid secretion	–	–	–	–	–	–	–	–	–	–	–	–
[Cl-].[Cl-].[Zn+2] [ZnCl2, zinc chloride]	–	–	4.54±0.065	higher pH	blocked; also recorded: abolished	98	a few seconds	increase of the intracellular pH continued; also recorded: returns to normal levels	blocked; also recorded: dose dependent manner	0.034±0.0036 ΔpH/min	0.022±0.0045 ΔpH/min	–	–	–
NCCc1c[nH]cn1 [histamine]	no effect	–	–	–	–	–	–	–	–	–	–	0.042±0.007 ΔpHi/min and 0.040±0.0079 ΔpHi/min	robust proton efflux	0.051±0.004 ΔpH/min
